# In ChEMBL document CHEMBL3867439, “Affinity Crystallography: A New Approach to Extracting High-Affinity Enzyme Inhibitors from Natural Extracts” (J Nat Prod, 2016):
# Target: T1, Cathepsin K (Homo sapiens, UniProt P43235)
# T1 sequence (P43235 whole entry): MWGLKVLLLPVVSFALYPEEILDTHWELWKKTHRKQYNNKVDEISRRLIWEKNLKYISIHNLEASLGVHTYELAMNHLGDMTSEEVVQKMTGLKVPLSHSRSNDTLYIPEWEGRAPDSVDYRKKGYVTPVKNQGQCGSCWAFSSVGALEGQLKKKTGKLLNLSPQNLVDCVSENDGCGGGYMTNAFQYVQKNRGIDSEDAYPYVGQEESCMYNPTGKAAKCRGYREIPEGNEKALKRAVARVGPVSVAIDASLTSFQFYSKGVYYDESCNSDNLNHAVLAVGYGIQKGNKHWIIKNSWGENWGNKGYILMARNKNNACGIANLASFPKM
# Assay: Competitive inhibition of human recombinant cathepsin K using Z-FR-MCA fluorogenic substrate by Dixon plot analysis
row,Ki [µM],Compound
1,0.069,CC(C)[C@H](NC(=O)[C@H](CCCNC(=N)N)NC(=O)N[C@@H](Cc1ccccc1)C(=O)O)C(=O)NC1CCCN(C(=N)N)C1O (stereo in doubt; form 2)
2,0.163,CC(C)[C@H](NC(=O)[C@H](CCCNC(=N)N)NC(=O)N[C@@H](Cc1ccccc1)C(=O)O)C(=O)NC1CCCN(C(=N)N)C1=O (stereo partly specified)
3,0.105,CC(C)[C@H](NC(=O)[C@H](CCCNC(=N)N)NC(=O)N[C@@H](Cc1ccccc1)C(=O)O)C(=O)NC1CCCN(C(=N)N)C1O (stereo in doubt; form 1)
4,0.393,CC(C)[C@H](NC(=O)[C@H](CCCNC(=N)N)NC(=O)N[C@@H](Cc1ccccc1)C(=O)O)C(=O)NC1=CN(C(=N)N)CCC1

# Target: T1, Cathepsin K
# Assay: Competitive inhibition of human recombinant cathepsin K using Z-FR-MCA fluorogenic substrate by Handerson plot analysis
row,Ki [µM],Compound
1,0.041,CC(C)[C@H](NC(=O)[C@H](CCCNC(=N)N)NC(=O)N[C@@H](Cc1ccccc1)C(=O)O)C(=O)NC1CCCN(C(=N)N)C1O (stereo in doubt; form 2)
2,0.011,CC(C)[C@H](NC(=O)[C@H](CO)NC(=O)NCCCCNC(=N)N)C(=O)N[C@H]1CCCN(C(=N)N)C1O (stereo partly specified)
